In US12128035B2, “Activating pyruvate kinase R” (Novo Nordisk Health Care AG, priority 2021, dated 2024):

Test system: ATP blood levels
Assay: Phase 1 SAD/MAD: blood ATP (LC-MS/MS) in healthy volunteers
Type: in vivo, human
Protocol: In this study, SAD/MAD cohorts are randomized (3 to 1) to receive Compound 1 or placebo (P). Compound 1 was evaluated first in 4 healthy SAD cohorts and 4 healthy MAD (14-day dosing period) cohorts. Based on the safety, and PK/PD profile from HS, Compound 1 is then evaluated in 1 SCD SAD cohort and 2 SCD MAD cohorts. Specifically, based on the safety and pharmacokinetic/pharmacodynamics (PK/PD) profile in healthy volunteer studies, Compound 1 is evaluated in patients (pts) with SCD, first in a single dose (SD or SAD) cohort and then in multiple-dose (MD or MAD) cohorts (14-day and 12-week). Safety assessments include AEs, vital signs, ECGs and laboratory parameters. PK/PD blood sampling was performed on Day 1 (SAD/MAD) and Day 14 (MAD) and up to 72 h after the last dose and at the end-of-study visit. PD parameters included 2,3-DPG, ATP, and p50 in all cohorts with additional PD studies (including oxygen scan) performed only in the SCD cohorts. PD parameters included 2,3-DPG, ATP, p50, RBC deformability with controlled deoxygenation and reoxygenation (Lorrca® oxygen scan) and varying osmolality (Lorrca® osmoscan)). To maintain study blind, pt identifiers were removed when needed.
In the MAD cohorts, the subjects' blood ATP levels were measured […] by a qualified LC-MS/MS method for the quantitation of ATP in blood. […] Table 20A reports the median percentage change in blood ATP levels, relative to baseline, measured over time after the first dose on days 1 and 14 in healthy volunteers who received daily doses of Compound 1 (100 mg BID, 200 mg BID, 300 mg BID, or 400 mg QD) or placebo for 14 days. Table 20B reports the mean percentage change in ATP blood levels, relative to baseline, measured over time after the first dose on days 1 and 14 in healthy volunteers who received daily doses of Compound 1 (100 mg BID, 200 mg BID, 300 mg BID, or 400 mg QD) for 14 days.
The following procedures are employed for the analysis of ATP and 2,3-DPG in human whole blood K2EDTA using a protein precipitation extraction procedure and analysis by LC-MS/MS.
The following procedures are used for sample extraction prior to analysis via LC-MS/MS. 15.0 μL of the calibration standards, quality controls, matrix blanks, and samples are aliquoted into a 96-well plate. 50.0 μL of the internal standard spiking solution is added to all samples on the plate, with the exception of the matrix blank samples; 50.0 μL of water is added to the matrix blank samples. Subsequently, 150 μL of water is added to all samples on the plate. The plate is then covered and agitated by vortex at high speed for ten minutes, after which 750 μL of methanol is added to all samples on the plate. The plate is covered and agitated by vortex for approximately 1 minute. The plate is then centrifuged at approximately 3500 RPM at approximately 4° C. for five minutes. After centrifugation, a liquid handler is used to transfer 50 μL of each sample to a new 96-well plate, and 200 μL of acetonitrile is added to all samples on the plate. The newly prepared plate is covered and agitated by vortex for approximately 1 minute. The plate is then centrifuged at approximately 3500 RPM at approximately 4° C. for 2 minutes.

[1] = HV 100 mg BID, Day 1, 0 h after first daily dose
[2] = HV 100 mg BID, Day 1, 6 h after first daily dose
[3] = HV 100 mg BID, Day 1, 8 h after first daily dose
[4] = HV 100 mg BID, Day 1, 12 h after first daily dose
[5] = HV 100 mg BID, Day 1, 16 h after first daily dose
[6] = HV 100 mg BID, Day 1, 24 h after first daily dose
[7] = HV 100 mg BID, Day 14, 0 h after first daily dose
[8] = HV 100 mg BID, Day 14, 6 h after first daily dose
[9] = HV 100 mg BID, Day 14, 8 h after first daily dose
[10] = HV 100 mg BID, Day 14, 12 h after first daily dose
[11] = HV 100 mg BID, Day 14, 16 h after first daily dose
[12] = HV 100 mg BID, Day 14, 24 h after first daily dose
[13] = HV 100 mg BID, Day 14, 48 h after first daily dose
[14] = HV 100 mg BID, Day 14, 72 h after first daily dose
[15] = HV 200 mg BID, Day 1, 0 h after first daily dose
[16] = HV 200 mg BID, Day 1, 6 h after first daily dose
[17] = HV 200 mg BID, Day 1, 8 h after first daily dose
[18] = HV 200 mg BID, Day 1, 12 h after first daily dose
[19] = HV 200 mg BID, Day 1, 16 h after first daily dose
[20] = HV 200 mg BID, Day 1, 24 h after first daily dose
[21] = HV 200 mg BID, Day 14, 0 h after first daily dose
[22] = HV 200 mg BID, Day 14, 6 h after first daily dose
[23] = HV 200 mg BID, Day 14, 8 h after first daily dose
[24] = HV 200 mg BID, Day 14, 12 h after first daily dose
[25] = HV 200 mg BID, Day 14, 16 h after first daily dose
[26] = HV 200 mg BID, Day 14, 24 h after first daily dose
[27] = HV 200 mg BID, Day 14, 48 h after first daily dose
[28] = HV 200 mg BID, Day 14, 72 h after first daily dose
[29] = HV 300 mg BID, Day 1, 0 h after first daily dose
[30] = HV 300 mg BID, Day 1, 6 h after first daily dose
[31] = HV 300 mg BID, Day 1, 8 h after first daily dose
[32] = HV 300 mg BID, Day 1, 12 h after first daily dose
[33] = HV 300 mg BID, Day 1, 16 h after first daily dose
[34] = HV 300 mg BID, Day 1, 24 h after first daily dose
[35] = HV 300 mg BID, Day 14, 0 h after first daily dose
[36] = HV 300 mg BID, Day 14, 6 h after first daily dose
[37] = HV 300 mg BID, Day 14, 8 h after first daily dose
[38] = HV 300 mg BID, Day 14, 12 h after first daily dose
[39] = HV 300 mg BID, Day 14, 16 h after first daily dose
[40] = HV 300 mg BID, Day 14, 24 h after first daily dose
[41] = HV 300 mg BID, Day 14, 48 h after first daily dose
[42] = HV 300 mg BID, Day 14, 72 h after first daily dose
[43] = HV 400 mg QD, Day 1, 0 h after first daily dose
[44] = HV 400 mg QD, Day 1, 6 h after first daily dose
[45] = HV 400 mg QD, Day 1, 8 h after first daily dose
[46] = HV 400 mg QD, Day 1, 12 h after first daily dose

O=C([C@H](CO)c1ccccc1)N1CC2=C(C1)CN(S(=O)(=O)c1cnc3c(c1)OCCO3)C2 (single isomer, unassigned) [Compound 1]
Mean Percentage Change in ATP Levels [1]: 0%
Median Percentage Change in ATP Levels [1]: 0%
Mean Percentage Change in ATP Levels [2]: −5.6%
Median Percentage Change in ATP Levels [2]: −5.7%
Mean Percentage Change in ATP Levels [3]: −2.0%
Median Percentage Change in ATP Levels [3]: 0.0%
Mean Percentage Change in ATP Levels [4]: −0.6%
Median Percentage Change in ATP Levels [4]: −1.2%
Mean Percentage Change in ATP Levels [5]: 1.9%
Median Percentage Change in ATP Levels [5]: 3.3%
Mean Percentage Change in ATP Levels [6]: 4.4%
Median Percentage Change in ATP Levels [6]: 5.7%
Mean Percentage Change in ATP Levels [7]: 49%
Median Percentage Change in ATP Levels [7]: 42%
Mean Percentage Change in ATP Levels [8]: 45%
Median Percentage Change in ATP Levels [8]: 44%
Mean Percentage Change in ATP Levels [9]: 49%
Median Percentage Change in ATP Levels [9]: 48%
Mean Percentage Change in ATP Levels [10]: 45%
Median Percentage Change in ATP Levels [10]: 45%
Mean Percentage Change in ATP Levels [11]: 47%
Median Percentage Change in ATP Levels [11]: 45%
Mean Percentage Change in ATP Levels [12]: 55%
Median Percentage Change in ATP Levels [12]: 55%
Mean Percentage Change in ATP Levels [13]: 51%
Median Percentage Change in ATP Levels [13]: 52%
Mean Percentage Change in ATP Levels [14]: 47%
Median Percentage Change in ATP Levels [14]: 49%
Mean Percentage Change in ATP Levels [15]: 0%
Median Percentage Change in ATP Levels [15]: 0%
Mean Percentage Change in ATP Levels [16]: 1.7%
Median Percentage Change in ATP Levels [16]: −4.3%
Mean Percentage Change in ATP Levels [17]: 4.7%
Median Percentage Change in ATP Levels [17]: 5.4%
Mean Percentage Change in ATP Levels [18]: 6.7%
Median Percentage Change in ATP Levels [18]: 4.3%
Mean Percentage Change in ATP Levels [19]: 5.6%
Median Percentage Change in ATP Levels [19]: 6.0%
Mean Percentage Change in ATP Levels [20]: −0.2%
Median Percentage Change in ATP Levels [20]: 1.1%
Mean Percentage Change in ATP Levels [21]: 59%
Median Percentage Change in ATP Levels [21]: 62%
Mean Percentage Change in ATP Levels [22]: 50%
Median Percentage Change in ATP Levels [22]: 48%
Mean Percentage Change in ATP Levels [23]: 56%
Median Percentage Change in ATP Levels [23]: 58%
Mean Percentage Change in ATP Levels [24]: 56%
Median Percentage Change in ATP Levels [24]: 56%
Mean Percentage Change in ATP Levels [25]: 53%
Median Percentage Change in ATP Levels [25]: 57%
Mean Percentage Change in ATP Levels [26]: 66%
Median Percentage Change in ATP Levels [26]: 65%
Mean Percentage Change in ATP Levels [27]: 62%
Median Percentage Change in ATP Levels [27]: 70%
Mean Percentage Change in ATP Levels [28]: 57%
Median Percentage Change in ATP Levels [28]: 54%
Mean Percentage Change in ATP Levels [29]: 0%
Median Percentage Change in ATP Levels [29]: 0%
Mean Percentage Change in ATP Levels [30]: −4.5%
Median Percentage Change in ATP Levels [30]: −7.6%
Mean Percentage Change in ATP Levels [31]: −2.0%
Median Percentage Change in ATP Levels [31]: −2.4%
Mean Percentage Change in ATP Levels [32]: −0.6%
Median Percentage Change in ATP Levels [32]: 0.9%
Mean Percentage Change in ATP Levels [33]: −0.5%
Median Percentage Change in ATP Levels [33]: −1.1%
Mean Percentage Change in ATP Levels [34]: 2.2%
Median Percentage Change in ATP Levels [34]: 1.8%
Mean Percentage Change in ATP Levels [35]: 46%
Median Percentage Change in ATP Levels [35]: 46%
Mean Percentage Change in ATP Levels [36]: 51%
Median Percentage Change in ATP Levels [36]: 51%
Mean Percentage Change in ATP Levels [37]: 52%
Median Percentage Change in ATP Levels [37]: 50%
Mean Percentage Change in ATP Levels [38]: 49%
Median Percentage Change in ATP Levels [38]: 51%
Mean Percentage Change in ATP Levels [39]: 52%
Median Percentage Change in ATP Levels [39]: 53%
Mean Percentage Change in ATP Levels [40]: 56%
Median Percentage Change in ATP Levels [40]: 52%
Mean Percentage Change in ATP Levels [41]: 57%
Median Percentage Change in ATP Levels [41]: 58%
Mean Percentage Change in ATP Levels [42]: 48%
Median Percentage Change in ATP Levels [42]: 49%
Mean Percentage Change in ATP Levels [43]: 0%
Median Percentage Change in ATP Levels [43]: 0%
Mean Percentage Change in ATP Levels [44]: −1.2%
Median Percentage Change in ATP Levels [44]: −1.7%
Mean Percentage Change in ATP Levels [45]: −2.9%
Median Percentage Change in ATP Levels [45]: −4.5%
Mean Percentage Change in ATP Levels [46]: 2.4%
Median Percentage Change in ATP Levels [46]: 3.5%
Mean Percentage Change in ATP Levels (HV 400 mg QD, Day 1, 16 h after first daily dose): −2.2%
